# Measured values reported in patent US20230029486A1, “A METHOD FOR ENHANCING THE PHARMACOKINETICS OR INCREASING THE PLASMA CONCENTRATION OF METHYL 3-((METHYLSULFONYL)AMINO)-2-(((4-PHENYLCYCLOHEXYL)OXY)METHYL)PIPERIDINE-1-CARBOXYLATE OR A SALT THEREOF WITH AN INHIBITOR OF CYTOCHROME P450” (TAKEDA PHARMACEUTICAL COMPANY LIMITED, priority 2020, published 2023).
# Read-outs that look alike come from different tables or passages of the source.
# Key:
# [1] = Safety and tolerability of single oral dose of Compound A with and without cobicistat; type: in vivo, human; settings: single oral dose of Compound A with steady state cobicistat, healthy adult subjects
# Procedure: · To evaluate the safety and tolerability of a single oral dose of Compound A with and without cobicistat.
# Safety was assessed by monitoring for adverse events (AEs), vital signs, safety 12-lead electrocardiograms (ECGs), safety laboratory assessments, pulse oximetry, C-SSRS (Columbia Suicide Severity Rating Scale), and physical examinations throughout the study.
# [2] = Phase 1 open-label study: single-dose plasma pharmacokinetics of Compound A with and without cobicistat; type: in vivo, human; settings: for DNAUCinf112 (Day 12) / DNAUClast112 (Day 12) / DNCmax112 (Day 12): 14 mg Compound A oral + MD 150 mg cobicistat; for DNAUCinf112 (Day 12) / DNAUClast112 (Day 12) / DNCmax112 (Day 12) / DNAUCi nf 112Ratio (Day 12/Day 3) / DNAUCla st 112Ratio (Day 12/Day 3) / DNCma x 112Ratio (Day 12/Day 3) / DNAUCinf112 (Day 3) / DNAUClast112 (Day 3) / DNCmax112 (Day 3): n=15; for DNAUCi nf 112Ratio (Day 12/Day 3) / DNAUCla st 112Ratio (Day 12/Day 3) / DNCma x 112Ratio (Day 12/Day 3): 14 mg oral + cobicistat versus 112 mg oral alone, dose-normalized
# From the text: The purpose of this study was to evaluate the effect of cobicistat on Compound A. The primary goal was to evaluate whether cobicistat can boost plasma concentrations of oral Compound A in humans and therefore, can be used in combination with Compound A as part of an oral dose regimen. The magnitude of this intentional drug-drug interaction (DDI) is also quantified. This was a non-randomized, open-label, fixed-sequence study in healthy male and female (women of non-childbearing potential [WONCBP]) subjects. […] Predose blood samples for cobicistat PK were also collected on Days 7, 9, 10, and 11. […] PK blood samples for cobicistat were collected predose on Day 12 and up until 24 hours post cobicistat dosing and at 24-hour post Day 13 cobicistat dosing. Plasma pharmacokinetic parameters of Compound A after oral administration with and without cobicistat as follows • Maximum observed concentration (Cmax). • Area under the concentration-time curve from time 0 to infinity, calculated using the observed value of the last quantifiable concentration (AUCinf). • Area under the concentration-time curve from time 0 to the time of the last quantifiable concentration (AUClast). […] Plasma pharmacokinetic parameters of Compound A after oral administration with and without cobicistat (Cmax, AUCinf and AUClast) were calculated.
# [3] = tested on: rodent model of narcolepsy; settings: cited from earlier work
# healthy mice = settings: cited from earlier work
# [4] = intravenous single dose studies, healthy volunteers and NT1 patients; cited from earlier work
# nonhuman primates = settings: cited from earlier work
# CYP3A = assay: Midazolam as in vivo probe for human CYP3A activity under cobicistat; settings: 0.5 mg midazolam oral with 150 mg cobicistat QD, Day 7 and Day 10, versus 1 mg midazolam alone
# Procedure: Midazolam is a benzodiazepine derivative that is exclusively metabolized by the CYP3A enzymatic pathway and therefore, was used as an in vivo probe for human CYP3A activity.
# On Day 1, subjects received 1 mg midazolam orally and pharmacokinetic (PK) blood samples for midazolam (and its metabolite 1-hydroxy (1-OH) midazolam) were collected predose and up until 24 hours postdose to establish baseline cytochrome P450 (CYP) 3A activity.
# On Days 7 and 10, 0.5 mg midazolam were administered orally (30 minutes after the cobicistat dose) and PK blood for midazolam and 1-OH midazolam were collected on each of these days, predose and up until 24 hours post midazolam dosing.
# Blood PK sampling for midazolam and its metabolite (1-hydroxymidazolam): • Study Day 1: predose (prior to midazolam administration), 0.5, 1, 1.5, 2, 4, 6, 8, 12 hours postdose • Study Day 2: 24 hours post Day 1 dosing and prior to start of Compound A IV infusion • Study Day 7: predose (prior to cobicistat and midazolam administration), 0.5, 1, 1.5, 2, 4, 6, 8, 12 hours post midazolam dosing • Study Day 8: 24 hours post Day 7 midazolam dosing and prior to cobicistat administration • Study Day 10: predose (prior to cobicistat and midazolam administration), 0.5, 1, 1.5, 2, 4, 6, 8, 12 hours post midazolam dosing • Study Day 11: 24 hours post Day 10 midazolam dosing and prior to cobicistat administration
# [5] = 14 mg Compound A oral + QD 150 mg cobicistat compared to 14 mg IV alone (9-hour IV infusion)
# [6] = 14 mg Compound A oral + QD 150 mg cobicistat versus 112 mg oral alone, dose-normalized to 112 mg
# [7] = 112 mg Compound A oral alone compared to 14 mg Compound A IV alone
# [8] = Geom Mean, dose-normalized to 112 mg
# [9] = Geom Mean, 112 mg Compound A oral alone
# [10] = Mean, dose-normalized to 112 mg
# [11] = Mean, 112 mg Compound A oral alone
compound,measurement,setting,value
"COC(=O)N1CCC[C@H](NS(C)(=O)=O)[C@@H]1CO[C@H]1CC[C@@H](c2ccccc2)CC1 [Compound A, methyl (2R,3S)-3-((methylsulfonyl)amino)-2-(((cis-4-phenylcyclohexyl)oxy)methyl)piperidine-1-carboxylate]",safety and tolerability,[1],generally safe and well tolerated
same,mean t1/2z,[2]; 14 mg Compound A IV alone,3.7 h
same,mean t1/2z,[2]; 14 mg Compound A oral + QD 150 mg cobicistat,~ 8 hours
same,"geometric mean dose-normalized AUC∞, increase over IV",[2]; [5],2.8 fold
same,"geometric mean dose-normalized Cmax, increase over IV",[2]; [5],7.9 fold
same,increase of geometric LSM AUClast,[2]; [6],~109 fold
same,increase of geometric LSM AUC∞,[2]; [6],~109 fold
same,increase of geometric LSM Cmax,[2]; [6],approximately 50 fold
same,"dose-normalized Cmax, AUCinf and AUClast of plasma Compound A, Day 12 versus Day 3",[2]; 14 mg oral + MD 150 mg cobicistat versus 112 mg oral alone,much higher
same,mean t1/2z,[2]; 112 mg Compound A oral alone,4.9 h
same,"geometric mean dose-normalized AUC∞, lower than IV",[2]; [7],~97%
same,"geometric mean dose-normalized Cmax, lower than IV",[2]; [7],approximately 84%
same,DNAUCinf112 (Day 12),[2]; [8],7623 ng*hr/mL/112 mg Compound A
same,DNAUClast112 (Day 12),[2]; [8],7504 ng*hr/mL/112 mg Compound A
same,DNCmax112 (Day 12),[2]; [8],2253 ng/mL/112 mg Compound A
same,DNAUCi nf 112Ratio (Day 12/Day 3),[2]; Geom Mean,10942%
same,DNAUCla st 112Ratio (Day 12/Day 3),[2]; Geom Mean,10871%
same,DNCma x 112Ratio (Day 12/Day 3),[2]; Geom Mean,5028%
same,DNAUCinf112 (Day 3),[2]; [9],69.67 ng*hr/mL/112 mg Compound A
same,DNAUClast112 (Day 3),[2]; [9],69.02 ng*hr/mL/112 mg Compound A
same,DNCmax112 (Day 3),[2]; [9],44.81 ng/mL/112 mg Compound A
same,DNAUCinf112 (Day 12),[2]; [10],8448 ng*hr/mL/112 mg Compound A
same,DNAUClast112 (Day 12),[2]; [10],8231 ng*hr/mL/112 mg Compound A
same,DNCmax112 (Day 12),"[2]; Mean, dose-normalized to 112 mg, plasma, healthy subjects",2335 ng/mL/112 mg Compound A
same,DNAUCi nf 112Ratio (Day 12/Day 3),[2]; Mean,14349%
same,DNAUCla st 112Ratio (Day 12/Day 3),[2]; Mean,14385%
same,DNCma x 112Ratio (Day 12/Day 3),[2]; Mean,8290%
same,DNAUCinf112 (Day 3),[2]; [11],94.59 ng*hr/mL/112 mg Compound A
same,DNAUClast112 (Day 3),[2]; [11],94.21 ng*hr/mL/112 mg Compound A
same,DNCmax112 (Day 3),"[2]; Mean, 112 mg Compound A oral alone, plasma, healthy subjects",66.35 ng/mL/112 mg Compound A
same,"systemic exposures of Compound A administered orally, effect of cobicistat","[2]; via potent CYP3A inhibition, healthy adult subjects",significantly increased
COC(=O)N1CCCC(NS(C)(=O)=O)C1COC1CCC(c2ccccc2)CC1 (stereo not shown) [methyl 3-((methylsulfonyl)amino)-2-(((4-phenylcyclohexyl)oxy)methyl)piperidine-1-carboxylate],improving wakefulness,[3],significant effects
same,reducing cataplexy-like symptoms,[3],significant effects
same,wakefulness,healthy mice,promoted wakefulness
same,safety and tolerability,[4],safe and well-tolerated
same,wakefulness,nonhuman primates,promoted wakefulness
Cc1ncc2n1-c1ccc(Cl)cc1C(c1ccccc1F)=NC2 [midazolam],"midazolam Cmax, increase with cobicistat",CYP3A,approximately 5 fold
